Each block holds one compound with its values, some of them ahead of it. Where a SMILES comes first, the peptide text is derived from it.
Assays:
[1] = biological target: T1, gephE (Rattus norvegicus, UniProt Q03555); test: TRIC displacement 12-point dose response against gephE-NN1D-Alexa647 complex; assay type: binding
T1 construct: gephE (residues 318-736) was generated; made in house
T1 sequence (Q03555 350-768): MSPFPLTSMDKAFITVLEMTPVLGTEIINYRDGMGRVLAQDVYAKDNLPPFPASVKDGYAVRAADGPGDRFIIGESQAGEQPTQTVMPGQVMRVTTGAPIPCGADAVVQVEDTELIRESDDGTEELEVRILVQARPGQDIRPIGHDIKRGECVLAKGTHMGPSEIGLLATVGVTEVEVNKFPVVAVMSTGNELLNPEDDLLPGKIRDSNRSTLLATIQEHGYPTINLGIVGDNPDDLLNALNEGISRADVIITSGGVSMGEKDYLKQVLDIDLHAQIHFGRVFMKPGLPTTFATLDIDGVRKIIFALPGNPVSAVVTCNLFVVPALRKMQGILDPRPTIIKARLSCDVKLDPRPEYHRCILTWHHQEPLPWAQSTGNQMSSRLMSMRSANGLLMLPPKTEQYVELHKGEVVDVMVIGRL

[2] = tested on: native geph; test: µSPOT peptide microarray binding assay with native geph from mouse brain lysate
[3] = tested on: gephE; test: µSPOT peptide microarray binding assay with recombinant gephE
[4] = tested on: FL-geph; test: µSPOT peptide microarray binding assay with full-length geph
[5] = µSPOT peptide microarray, GlyRβ full positional scan, native geph from mouse brain lysate, intensity normalised to wild-type sequence DLRSNDFSIVGSLPR (=1)
[6] = µSPOT peptide microarray, GlyRβ full positional scan, recombinant gephE, intensity normalised to wild-type sequence DLRSNDFSIVGSLPR (=1)
[7] = µSPOT peptide microarray, GlyRβ full positional scan, intensity normalised to wild-type sequence DLRSNDFSIVGSLPR (=1)
[8] = µSPOT full positional scan of GlyRβ 15-mer DLRSNDFSIVGSLPR, intensity normalised to wild-type sequence (= 1)

Ki [1]: 22.4 µM
Compound: CC(C)C[C@H](NC(=O)[C@H](CO)NC(=O)[C@H](Cc1ccccc1)NC(=O)[C@H](CC(=O)O)NC(=O)[C@H](CC(N)=O)NC(=O)[C@H](CO)NC(=O)[C@H](CCCNC(=N)N)NC(=O)[C@H](CC(C)C)NC(=O)[C@@H](N)CC(=O)O)C(=O)N[C@H](C(=O)NCC(=O)N[C@@H](CO)C(=O)N[C@@H](CC(C)C)C(=O)N1CCC[C@H]1C(=O)N[C@@H](CCCNC(=N)N)C(N)=O)C(C)C [GlyRβ_Full_Positional_Scan_164] (H-DLRSNDFSLVGSLPR-NH2)

Ki [1]: 185 µM
Compound: CC[C@H](C)[C@H](NC(=O)[C@H](CO)NC(=O)[C@H](Cc1ccc(O)cc1)NC(=O)[C@H](CC(=O)O)NC(=O)[C@H](CC(N)=O)NC(=O)[C@H](CO)NC(=O)[C@H](CCCNC(=N)N)NC(=O)[C@H](CC(C)C)NC(=O)[C@@H](N)CC(=O)O)C(=O)N[C@H](C(=O)NCC(=O)N[C@@H](CO)C(=O)N[C@@H](CC(C)C)C(=O)N1CCC[C@H]1C(=O)N[C@@H](CCCNC(=N)N)C(N)=O)C(C)C [GlyRβ_Full_Positional_Scan_129] (H-DLRSNDYSIVGSLPR-NH2)

Ki [1]: 9.01 µM
Compound: CC[C@H](C)[C@H](NC(=O)[C@H](CO)NC(=O)[C@H](Cc1ccccc1)NC(=O)[C@H](CC(=O)O)NC(=O)[C@H](CC(N)=O)NC(=O)[C@H](CO)NC(=O)[C@H](CCCNC(=N)N)NC(=O)[C@H](CC(C)C)NC(=O)[C@@H](N)CC(=O)O)C(=O)N[C@H](C(=O)NCC(=O)N[C@@H](CO)C(=O)N[C@@H](CC(C)C)C(=O)N1CCC[C@H]1C(=O)N[C@@H](CCCNC(=N)N)C(N)=O)[C@@H](C)CC [GlyRβ_Full_Positional_Scan_183] (H-DLRSNDFSIIGSLPR-NH2)

Ki [1]: 21.4 µM
Compound: CC(C)C[C@H](NC(=O)[C@@H](N)CC(=O)O)C(=O)N[C@@H](CCCNC(=N)N)C(=O)N[C@@H](CO)C(=O)N[C@@H](CC(N)=O)C(=O)N[C@@H](CC(=O)O)C(=O)N[C@@H](Cc1ccccc1)C(=O)N[C@@H](CO)C(=O)N[C@H](C(=O)N[C@H](C(=O)NCC(=O)N[C@@H](CO)C(=O)N[C@@H](CC(C)C)C(=O)N1CCC[C@H]1C(=O)N[C@@H](CCCNC(=N)N)C(N)=O)C(C)C)C(C)C [GlyRβ_Full_Positional_Scan_166] (H-DLRSNDFSVVGSLPR-NH2)

Ki [1]: 42.4 µM
Compound: CC[C@H](C)[C@H](NC(=O)CNC(=O)[C@H](Cc1ccccc1)NC(=O)[C@H](CC(=O)O)NC(=O)[C@H](CC(N)=O)NC(=O)[C@H](CO)NC(=O)[C@H](CCCNC(=N)N)NC(=O)[C@H](CC(C)C)NC(=O)[C@@H](N)CC(=O)O)C(=O)N[C@H](C(=O)NCC(=O)N[C@@H](CO)C(=O)N[C@@H](CC(C)C)C(=O)N1CCC[C@H]1C(=O)N[C@@H](CCCNC(=N)N)C(N)=O)C(C)C [GlyRβ_Full_Positional_Scan_142] (H-DLRSNDFGIVGSLPR-NH2)

Ki [1]: 31.9 µM
Compound: CC[C@H](C)[C@H](NC(=O)[C@H](CO)NC(=O)[C@H](Cc1c[nH]c2ccccc12)NC(=O)[C@H](CC(=O)O)NC(=O)[C@H](CC(N)=O)NC(=O)[C@H](CO)NC(=O)[C@H](CCCNC(=N)N)NC(=O)[C@H](CC(C)C)NC(=O)[C@@H](N)CC(=O)O)C(=O)N[C@H](C(=O)NCC(=O)N[C@@H](CO)C(=O)N[C@@H](CC(C)C)C(=O)N1CCC[C@H]1C(=O)N[C@@H](CCCNC(=N)N)C(N)=O)C(C)C [GlyRβ_Full_Positional_Scan_128] (H-DLRSNDWSIVGSLPR-NH2)

Ki [1]: 16.6 µM
Compound: CC[C@H](C)[C@H](NC(=O)[C@@H](NC(=O)[C@H](Cc1ccccc1)NC(=O)[C@H](CC(=O)O)NC(=O)[C@H](CC(N)=O)NC(=O)[C@H](CO)NC(=O)[C@H](CCCNC(=N)N)NC(=O)[C@H](CC(C)C)NC(=O)[C@@H](N)CC(=O)O)[C@@H](C)O)C(=O)N[C@H](C(=O)NCC(=O)N[C@@H](CO)C(=O)N[C@@H](CC(C)C)C(=O)N1CCC[C@H]1C(=O)N[C@@H](CCCNC(=N)N)C(N)=O)C(C)C [GlyRβ_Full_Positional_Scan_156] (H-DLRSNDFTIVGSLPR-NH2)

Native geph Binding Intensity [norm.] [2, 5]: 1.11 norm. | gephE Binding Intensity [norm.] [3, 6]: 0.93 norm. | Fl-geph Binding Intensity [norm.] [4, 7]: 0.97 norm.
Compound: DLRENDFSIVGSLPR [GlyRβ_Full_Positional_Scan_071]

Native geph Binding Intensity [norm.] [2, 5]: 1.17 norm. | gephE Binding Intensity [norm.] [3, 6]: 0.86 norm. | Fl-geph Binding Intensity [norm.] [4, 7]: 1.13 norm.
Compound: DLWSNDFSIVGSLPR [GlyRβ_Full_Positional_Scan_048]

Native geph Binding Intensity [norm.] ([2]; µSPOT full positional scan of GlyRβ 15-mer DLRSNDFSIVGSLPR, native geph, intensity normalised to wild-type sequence (= 1)): 0.96 norm. | gephE Binding Intensity [norm.] [3, 8]: 0.9 norm. | Fl-geph Binding Intensity [norm.] [4, 8]: 1.16 norm.
Compound: DLRSNDFSIVGSFPR [GlyRβ_Full_Positional_Scan_247]

From PMC7753147, “High-throughput determination of protein affinities using unmodified peptide libraries in nanomolar scale” (iScience, 2020)
